Experiments:
[1] = Lipid mixing (FRET) assay, Ca2+-induced fusion of PE:PS LUVs
Protocol: (§1) Lipid mixtures were prepared as described for NMR measurements. The resultant multilamellar vesicles (MLV) were frozen in liquid nitrogen and then thawed at 30° C. five times. Large unilamellar vesicles (LUV) were produced by extrusion of the frozen and thawed MLV ten times through 2 stacked polycarbonate filters of […] pore size at 30° C. and pressures of 200-500 psi (Hope, et al., Biochim. Biophys. Acta 812:55-65 (1985)).
Lipid mixing was measured by a modification of the fluorescence resonance energy transfer (FRET) assay of Struck, et al. (Biochemistry 20:4093-4099 (1981)). LUVs were prepared containing the fluorescent lipids, N-(7-nitro-2-1,3-benzoxadiazol-4-yl)-dioleoylphosphatidylethanolamine (NBD-PE) and N-(lissamine rhodamine B sulfonyl)-dipalmitoylphosphatidylethanolamine (Rh-PE) at 0.5 mol %. LUVs (50-60 μM) and a three-fold excess of unlabelled target vesicles were mixed in the fluorimeter at 37° C. for short term assays (≦1 hour), or in sealed cuvettes in a dark water bath at 37° C. for longer assays. For measurements of fusion after PEG-lipid transfer, an excess of liposomes prepared from 1-palmitoyl-2-oleoyl-phosphatidylcholine (POPC) was added as a sink for the PEG-lipid. Fluorescence emission intensity was measured at 517 nm with excitation at 465 nm both before and after the addition of Triton X-100 (final concentration of 0. 5% or 1% when POPC sink was used). Data is presented as either uncorrected fluorescence intensity for short term assays (<1 hour) or as percentage fusion. Light scattering controls were performed by replacing LUVs labelled with 0.5 mol % probes with unlabelled vesicles. Maximum fusion was determined using mock fused vesicles containing 0.125 mol % of each fluorescent probe. The percentage fusion was calculated as: [formula]
where F(t)=fluorescence intensity at time t; Fo=fluorescence intensity at zero time; FT=fluorescence intensity in the presence of Triton X-100. M and L represent the same measurements for the mock fused control and the light scattering control respectively.

[2] = Lipid mixing (FRET) assay, NaCl-induced fusion of DOPE:DODAC liposomes; details: DOPE:DODAC:PEG-lipid 83:15:2, 300 mM NaCl, POPC sink
Protocol: as §1
Lipid mixing was measured by a modification of the fluorescence resonance energy transfer (FRET) assay of Struck, et al. (Biochemistry 20:4093-4099 (1981)). […] Fluorescence emission intensity was measured at 517 nm with excitation at 465 nm both before and after the addition of Triton X-100 (final concentration of 0. 5% or 1% when POPC sink was used). Data is presented as either uncorrected fluorescence intensity for short term assays (<1 hour) or as percentage fusion. […] Maximum fusion was determined using mock fused vesicles containing 0.125 mol % of each fluorescent probe. The percentage fusion was calculated as: [formula]
where F(t)=fluorescence intensity at time t; Fo=fluorescence intensity at zero time; FT=fluorescence intensity in the presence of Triton X-100. […]

[3] = 31P-NMR phase preference of equimolar DOPE:cholesterol mixtures with bilayer stabilizing component (BSC); type: physicochemical
Protocol: Lipid components were mixed in 1-2 ml of benzene:methanol (95:5, v/v) and then lyophilized for a minimum of 5 hours at a pressure of <60 millitorr using a Virtis lyophilizer equipped with a liquid N2 trap. Multilamellar vesicles (MLVs) were prepared by hydrating the dry lipid mixtures in 150 mM NaCl, buffered with 10 mM Hepes-NaOH, pH 7.4 (Hepes-buffered saline, HBS). Mixtures were vortexed to assist hydration. To produce large unilamellar vesicles (LUVs), MLVs were first frozen in liquid nitrogen and then thawed at 30° C. five times. LUVs were produced by extrusion of the frozen and thawed MLVs ten times through 2 stacked polycarbonate filters of 100 nm pore size at 30° C. and pressures of 200-500 psi (Hope, et al., Biochim. Biophys. Acta, 812:55-65 (1985)).
^31P-NMR spectra were obtained using a temperature controlled Bruker MSL200 spectrometer operating at 81 MHz. Free induction decays were accumulated for 2000 transients using a 4 μs, 90° pulse, 1 sec. interpulse delay, 20 KHz sweep width and Waltz decoupling. A 50 Hz line broadening was applied to the data prior to Fourier transformation. Samples were allowed to equilibrate at the indicated temperature for 30 minutes prior to data accumulation. Lipid concentrations of 30-70 mM were used.

[4] = PE:PS LUVs, 2 mol % PE-PEG2000, POPC sink

PEG2000 conjugated to distearoylphosphatidylethanolamine [DSPE-PEG2000]
level of fusion after 24 hours [1, 4]: 20 % of maximum

PEG2000 conjugated to dimyristoylphosphatidylethanolamine [DMPE-PEG2000]
extent of fusion at 21 hr [2]: < 20 % of maximum | time delay (lag phase) prior to fusion ([1]; 2, 3, 5 or 10 mol % PEG-lipid, 36fold excess POPC liposomes): increase in the time delay prior to fusion with increasing PEG-lipid concentration | concentration sufficient to eliminate (completely inhibit) Ca2+-induced fusion ([1]; PE:PS (1:1) LUVs, 5 mM Ca2+, 37° C.): 2 mol % | time at which fusion was essentially complete [1, 4]: 40 min

1-O-methyl-(poly(ethoxy)-O-succinyl-O-(egg)ceramide [egg ceramide-PEG2000]
time for 50% maximal fusion ([2]; 37° C.): over 20 hr | phase preference (31P-NMR) ([3]; DOPE:cholesterol:BSC 1:1:0.1, 0 to 60° C.): both bilayer and HII phase lipid are in evidence at most temperatures | phase preference (31P-NMR) ([3]; equimolar DOPE:cholesterol, BSC 20 mol % of phospholipid (1:1:0.25)): exclusively bilayer up to 60 °C

PEG2000 conjugated to dipalmitoylphosphatidylethanolamine [DPPE-PEG2000]
time at which fusion was essentially complete [1, 4]: 1440 min | implied decrease in rate of transfer (acyl chains 14 to 16 carbons) ([1]; relative to DMPE-PEG2000): 30-40 fold

From patent US6673364B1, “Liposome having an exchangeable component” (The University of British Columbia, priority 1995, dated 2004)
